In patent publication US8471005B2 (Cephalon, Inc., priority 2008, dated 2013):
pIC50: −log10 of the molar value. Like-named read-outs stand apart in the source and are kept apart here.

Legend:
ALK = target: T1, ALK (Homo sapiens, UniProt Q9UM73); assay: ALK Kinase Assay (ELISA/TRF, PLC-γ substrate); assay type: biochemical; settings: read-out: ALK Potency
T1 construct: host or cells: baculovirus expression system
Summary of the method: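 Read-out is time-resolved fluorescence from a Eu-N1-labeled PT66 antibody that binds phosphorylated PLC-γ, the substrate coated at 10 μg/mL in TBS. ALK at 30 ng/ml starts the reaction, which runs 15 minutes at 37° C.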

JAK2 = target: T2, JAK2 (Homo sapiens, UniProt O60674); assay: Recombinant Human JAK2 Kinase Assay (TRF); assay type: biochemical; settings: read-out: JAK2 Potency
T2 construct: host or cells: baculovirus expression system
Summary of the method: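 Baculovirus-expressed JAK2 (15 ng/ml) phosphorylated a biotinylated 15-mer peptide captured on Neutravidin, in 20 mM HEPES pH 7.2, 0.2 μM ATP, 1 mM MnCl2, 0.1% BSA, 2.5% DMSO final, 20 min at room temperature. Phosphoproduct detected by time-resolved fluorescence with Eu-N1-labelled PY100 antibody.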

[1] = ALK kinase inhibition, 1 μM ATP
[2] = JAK2 kinase inhibition, 0.2 μM ATP

T1 sequence (Q9UM73 19-1620): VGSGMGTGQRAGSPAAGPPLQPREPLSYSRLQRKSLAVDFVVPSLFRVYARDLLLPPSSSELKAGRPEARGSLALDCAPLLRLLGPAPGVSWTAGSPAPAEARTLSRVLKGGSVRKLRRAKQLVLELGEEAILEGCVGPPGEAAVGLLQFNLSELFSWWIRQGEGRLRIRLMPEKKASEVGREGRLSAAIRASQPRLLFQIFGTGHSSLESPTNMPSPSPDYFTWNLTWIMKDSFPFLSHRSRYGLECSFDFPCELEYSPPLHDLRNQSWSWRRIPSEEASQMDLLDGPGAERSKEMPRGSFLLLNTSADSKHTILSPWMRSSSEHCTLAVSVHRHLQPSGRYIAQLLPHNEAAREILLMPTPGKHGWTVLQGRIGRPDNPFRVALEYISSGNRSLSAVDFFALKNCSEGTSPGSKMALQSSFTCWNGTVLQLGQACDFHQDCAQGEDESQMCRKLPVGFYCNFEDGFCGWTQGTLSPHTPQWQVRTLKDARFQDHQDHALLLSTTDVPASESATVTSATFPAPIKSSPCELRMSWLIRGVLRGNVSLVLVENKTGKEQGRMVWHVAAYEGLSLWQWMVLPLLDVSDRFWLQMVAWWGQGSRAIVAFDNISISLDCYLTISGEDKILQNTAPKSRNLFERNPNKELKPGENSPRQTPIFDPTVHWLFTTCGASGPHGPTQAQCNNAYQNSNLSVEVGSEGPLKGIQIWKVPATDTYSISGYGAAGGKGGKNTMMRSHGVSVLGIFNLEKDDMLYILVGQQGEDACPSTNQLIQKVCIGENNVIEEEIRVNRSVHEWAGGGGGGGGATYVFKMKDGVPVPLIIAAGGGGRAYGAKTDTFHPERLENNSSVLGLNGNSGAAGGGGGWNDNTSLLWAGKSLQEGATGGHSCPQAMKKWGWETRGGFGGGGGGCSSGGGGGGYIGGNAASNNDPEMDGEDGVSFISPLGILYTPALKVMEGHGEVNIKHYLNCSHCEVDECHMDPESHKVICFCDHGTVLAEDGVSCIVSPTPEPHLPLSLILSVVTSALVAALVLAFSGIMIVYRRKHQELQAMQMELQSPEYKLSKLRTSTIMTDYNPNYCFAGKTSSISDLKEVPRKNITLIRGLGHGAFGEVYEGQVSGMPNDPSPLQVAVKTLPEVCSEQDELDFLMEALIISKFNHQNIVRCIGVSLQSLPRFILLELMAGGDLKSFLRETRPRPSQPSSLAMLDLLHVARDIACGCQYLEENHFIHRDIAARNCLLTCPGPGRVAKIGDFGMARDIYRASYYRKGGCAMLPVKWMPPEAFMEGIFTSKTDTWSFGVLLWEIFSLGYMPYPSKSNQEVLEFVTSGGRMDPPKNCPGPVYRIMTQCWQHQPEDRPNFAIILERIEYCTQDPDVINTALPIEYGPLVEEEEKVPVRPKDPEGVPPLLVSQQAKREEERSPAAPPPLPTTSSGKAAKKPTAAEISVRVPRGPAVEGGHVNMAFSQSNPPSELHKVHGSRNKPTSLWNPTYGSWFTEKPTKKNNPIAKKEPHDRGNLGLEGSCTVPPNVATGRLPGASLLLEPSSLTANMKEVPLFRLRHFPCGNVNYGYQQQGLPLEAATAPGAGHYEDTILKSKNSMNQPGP
T2 sequence (O60674 whole entry): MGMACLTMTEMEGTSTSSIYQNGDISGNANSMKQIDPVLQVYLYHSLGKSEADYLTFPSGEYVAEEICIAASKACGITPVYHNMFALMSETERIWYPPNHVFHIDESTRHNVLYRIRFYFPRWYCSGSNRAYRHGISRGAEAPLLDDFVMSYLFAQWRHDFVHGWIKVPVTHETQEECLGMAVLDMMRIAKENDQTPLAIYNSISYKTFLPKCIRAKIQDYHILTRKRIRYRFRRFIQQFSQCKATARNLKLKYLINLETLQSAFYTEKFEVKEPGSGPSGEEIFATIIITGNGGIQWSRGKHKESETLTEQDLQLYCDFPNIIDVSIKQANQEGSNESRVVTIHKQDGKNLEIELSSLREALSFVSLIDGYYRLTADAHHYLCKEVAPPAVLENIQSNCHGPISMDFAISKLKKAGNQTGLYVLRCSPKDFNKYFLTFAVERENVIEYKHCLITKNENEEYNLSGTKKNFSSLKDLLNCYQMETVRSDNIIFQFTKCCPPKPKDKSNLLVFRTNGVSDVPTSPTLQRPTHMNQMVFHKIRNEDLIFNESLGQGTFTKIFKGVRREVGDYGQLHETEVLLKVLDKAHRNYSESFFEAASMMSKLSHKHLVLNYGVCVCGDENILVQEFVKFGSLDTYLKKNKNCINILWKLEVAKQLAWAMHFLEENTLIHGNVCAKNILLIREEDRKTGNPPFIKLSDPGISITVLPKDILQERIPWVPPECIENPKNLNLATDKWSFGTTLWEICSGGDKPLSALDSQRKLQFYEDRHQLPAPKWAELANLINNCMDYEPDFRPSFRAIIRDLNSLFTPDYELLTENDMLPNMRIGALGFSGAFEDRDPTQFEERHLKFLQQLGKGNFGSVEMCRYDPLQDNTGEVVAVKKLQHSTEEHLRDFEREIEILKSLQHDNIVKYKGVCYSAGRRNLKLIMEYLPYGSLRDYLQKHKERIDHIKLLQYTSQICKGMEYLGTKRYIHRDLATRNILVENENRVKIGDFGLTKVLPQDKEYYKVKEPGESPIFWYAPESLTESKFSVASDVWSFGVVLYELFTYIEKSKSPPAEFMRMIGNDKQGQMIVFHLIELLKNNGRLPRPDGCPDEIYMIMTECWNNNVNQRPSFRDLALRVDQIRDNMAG

| pIC50 (ALK; [1]) | pIC50 (JAK2; [2]) | pIC50 (ALK; ALK Kinase Inhibition) | pIC50 (JAK2; JAK2 Kinase Inhibition) | SMILES |
| --- | --- | --- | --- | --- |
| 6.00 to 7.00 | > 7.00 | – | – | CN1CCN(c2ccc(Nc3ncc4ccc(-c5ccc(CN6CCS(=O)(=O)CC6)nc5)n4n3)cc2)CC1 [Example 1056, {7-[6-(1,1-Dioxo-1$1(6)-thiomorpholin-4-ylmethyl)-pyridin-3-yl]-pyrrolo[2,1-f][1,2,4]triazin-2-yl}-[4-(4-methyl-piperazin-1-yl)-phenyl]-amine] |
| – | – | 5.00 to 6.00 | > 7.00 | c1ccc(-c2ccc3cnc(Nc4ccc(N5CCOCC5)nc4)nn23)cc1 [Example 46, (6-Morpholin-4-yl-pyridin-3-yl)-(7-phenyl-pyrrolo[2,1-f][1,2,4]triazin-2-yl)-amine] |
| – | – | 6.00 to 7.00 | > 7.00 | O=S1(=O)CCCN1c1cccc(-c2ccc3cnc(Nc4ccc5c(c4)CCC(N4CCOCC4)CC5)nn23)c1 (centres unmarked) [Example 1507, 7-[3-(1,1-Dioxido-1,2-thiazolidin-2-yl)phenyl]-N-[7-(morpholin-4-yl)-6,7,8,9-tetrahydro-5H-benzo[7]annulen-2-yl]pyrrolo[2,1-f][1,2,4]triazin-2-amine] |
| 5.00 to 6.00 | > 7.00 | – | – | COc1ccccc1-c1ccc2cnc(Nc3ccc(C4C(=O)N(C)CCN4C)cc3)nn12 (centres unmarked) [Example 1076, 3-{4-[7-(2-Methoxy-phenyl)-pyrrolo[2,1-f][1,2,4]triazin-2-ylamino]-phenyl}-1,4-dimethyl-piperazin-2-one] |
| > 7.00 | > 7.00 | – | – | CCN1CCOC(c2ccc(Nc3ncc4ccc(-c5ccccc5N(C)S(C)(=O)=O)n4n3)cc2)C1 (centres unmarked) [Example 995, N-(2-{2-[4-(4-Ethyl-morpholin-2-yl)-phenylamino]-pyrrolo[2,1-f][1,2,4]triazin-7-yl}-phenyl)-N-methyl-methanesulfonamide] |
| – | – | 6.00 to 7.00 | > 7.00 | C[C@H](O)CN1CCN(c2ccc(Nc3ncc4ccc(-c5ccc(S(C)(=O)=O)cc5)n4n3)cc2)CC1 [Example 205, (S)-1-(4-{4-[7-(4-Methanesulfonyl-phenyl)-pyrrolo[2,1-f][1,2,4]triazin-2-ylamino]-phenyl}-piperazin-1-yl)-propan-2-ol] |
| – | – | > 7.00 | > 7.00 | COc1cc(N2CCC(N3CCOCC3)CC2)ccc1Nc1ncc2ccc(-c3ccccc3OC(F)(F)F)n2n1 [Example 1455, [2-Methoxy-4-(4-morpholin-4-yl-piperidin-1-yl)-phenyl]-[7-(2-trifluoromethoxy-phenyl)-pyrrolo[2,1-f][1,2,4]triazin-2-yl]-amine] |
| > 7.00 | 6.00 to 7.00 | – | – | COc1cc(C2CCN(CC(C)(C)O)CC2)ccc1Nc1ncc2ccc(-c3ccccc3N(C)S(C)(=O)=O)n2n1 [Example 866, N-[2-(2-{4-[1-(2-Hydroxy-2-methyl-propyl)-piperidin-4-yl]-2-methoxy-phenylamino}-pyrrolo[2,1-f][1,2,4]triazin-7-yl)-phenyl]-N-methyl-methanesulfonamide] |
| – | – | > 7.00 | > 7.00 | CN1CCN(c2ccc(Nc3ncc4ccc(-c5ccc(CO)cc5)n4n3)cc2)CC1 [Example 1497, (4-{2-[4-(4-Methyl-piperazin-1-yl)-phenylamino]-pyrrolo[2,1-f][1,2,4]triazin-7-yl}-phenyl)-methanol] |
| – | – | 6.00 to 7.00 | > 7.00 | COc1ccc(Cl)cc1-c1ccc2cnc(Nc3cccc(C(=O)N4CCOCC4)c3)nn12 [Example 328, {3-[7-(5-Chloro-2-methoxy-phenyl)-pyrrolo[2,1-f][1,2,4]triazin-2-ylamino]-phenyl}-morpholin-4-yl-methanone] |
| > 7.00 | 6.00 to 7.00 | – | – | COc1cc(C2CCN(C(C)C(N)=O)CC2)ccc1Nc1ncc2ccc(-c3ccccc3OC)n2n1 (centres unmarked) [Example 1275, 2-(4-{3-Methoxy-4-[7-(2-methoxy-phenyl)-pyrrolo[2,1-f][1,2,4]triazin-2-ylamino]-phenyl}-piperidin-1-yl)-propionamide] |
| > 7.00 | 6.00 to 7.00 | – | – | COc1cc(C2CCN(C)CC2)ccc1Nc1ncc2ccc(-c3cccc4c3OCC4)n2n1 [Example 705, [7-(2,3-Dihydro-benzofuran-7-yl)-pyrrolo[2,1-f][1,2,4]triazin-2-yl]-[2-methoxy-4-(1-methyl-piperidin-4-yl)-phenyl]-amine] |
| – | – | 6.00 to 7.00 | > 7.00 | Cc1cc(-c2ccc(S(C)(=O)=O)cc2)n2nc(Nc3ccc(N4CCOCC4)cc3)ncc12 [Example 107, [7-(4-Methanesulfonyl-phenyl)-5-methyl-pyrrolo[2,1-f][1,2,4]triazin-2-yl]-(4-morpholin-4-yl-phenyl)-amine] |
| > 7.00 | > 7.00 | – | – | CN1CCN(c2ccc(Nc3ncc4ccc(-c5ccc(CN6CCS(=O)(=O)CC6)cc5)n4n3)cc2)CC1 [Example 1031, {7-[4-(1,1-Dioxo-1$1(6)-thiomorpholin-4-ylmethyl)-phenyl]-pyrrolo[2,1-f][1,2,4]triazin-2-yl}-[4-(4-methyl-piperazin-1-yl)-phenyl]-amine] |
| 5.00 to 6.00 | > 7.00 | – | – | CC(=O)N1CCCCc2ccc(Nc3ncc4ccc(-c5cccc(NS(C)(=O)=O)c5)n4n3)cc21 [Example 633, N-{3-[2-(1-Acetyl-2,3,4,5-tetrahydro-1H-benzo[b]azepin-8-ylamino)-pyrrolo[2,1-f][1,2,4]triazin-7-yl]-phenyl}methanesulfonamide] |
| – | – | < 5.00 | > 7.00 | COCCOc1ncc2ccc(-c3cc(Cl)ccc3OC)n2n1 [Example 191, 7-(5-Chloro-2-methoxy-phenyl)-2-(2-methoxy-ethoxy)-pyrrolo[2,1-f][1,2,4]triazine] |
| > 7.00 | 6.00 to 7.00 | – | – | COc1cc2c(cc1Nc1ncc3ccc(-c4ccccc4OC)n3n1)CCC1(CCN(C)CC1)O2 [Example 997, 7-methoxy-N-[7-(2-methoxyphenyl)pyrrolo[2,1-f][1,2,4]triazin-2-yl]-1′-methyl-3,4-dihydrospiro[chromene-2,4′-piperidin]-6-amine] |
| – | – | > 7.00 | > 7.00 | COc1ccccc1-c1ccc2cnc(Nc3ccc(CN4CCN(C)CC4)cc3)nn12 [Example 353, [7-(2-Methoxy-phenyl)-pyrrolo[2,1-f][1,2,4]triazin-2-yl]-[4-(4-methyl-piperazin-1-ylmethyl)-phenyl]-amine] |
| 6.00 to 7.00 | > 7.00 | – | – | Cn1cc(-c2ccc3cnc(Nc4ccc(N5CCN(CCO)CC5)cc4)nn23)cn1 [Example 1181, 2-(4-{4-[7-(1-Methyl-1H-pyrazol-4-yl)-pyrrolo[2,1-f][1,2,4]triazin-2-ylamino]-phenyl}-piperazin-1-yl)-ethanol] |
| – | – | 5.00 to 6.00 | > 7.00 | CS(=O)(=O)c1ccc(-c2ccc3cnc(Nc4cccc(N5CCOCC5)c4)nn23)cc1 [Example 163, [7-(4-Methanesulfonyl-phenyl)-pyrrolo[2,1-f][1,2,4]triazin-2-yl]-(3-morpholin-4-yl-phenyl)-amine] |
| > 7.00 | 6.00 to 7.00 | – | – | COc1cc2c(cc1Nc1ncc3ccc(-c4cccc(S(=O)(=O)NC5CC5)c4)n3n1)CCN(CC(N)=O)CC2 [Example 524, 2-{7-[7-(3-Cyclopropylsulfamoyl-phenyl)-pyrrolo[2,1-f][1,2,4]triazin-2-ylamino]-8-methoxy-1,2,4,5-tetrahydro-benzo[d]azepin-3-yl}-acetamide] |
| – | – | 6.00 to 7.00 | > 7.00 | CCS(=O)(=O)Nc1cccc(-c2ccc3cnc(Nc4ccc(N5CCN(C)CC5)cc4)nn23)c1 [Example 415, Ethanesulfonic acid (3-{2-[4-(4-methyl-piperazin-1-yl)-phenylamino]-pyrrolo[2,1-f][1,2,4]triazin-7-yl}-phenyl)-amide] |
| – | – | > 7.00 | > 7.00 | CCN1CCOC(c2ccc(Nc3ncc4ccc(-c5ccccc5OC)n4n3)cc2)C1 (centres unmarked) [Example 252, [4-(4-Ethyl-morpholin-2-yl)-phenyl]-[7-(2-methoxy-phenyl)-pyrrolo[2,1-f][1,2,4]triazin-2-yl]-amine] |
| – | – | 6.00 to 7.00 | > 7.00 | CC(=O)Nc1cccc(Nc2ncc3ccc(-c4ccccc4N(C)S(C)(=O)=O)n3n2)c1 [Example 1375, N-(3-{7-[2-(Methanesulfonyl-methyl-amino)-phenyl]-pyrrolo[2,1-f][1,2,4]triazin-2-ylamino}-phenyl)-acetamide] |
| > 7.00 | > 7.00 | – | – | COc1cc(Cl)ccc1-c1ccc2cnc(Nc3ccc(N4CCC(C(=O)N5CCN(C)CC5)CC4)cc3)nn12 [Example 484, (1-{4-[7-(4-Chloro-2-methoxy-phenyl)-pyrrolo[2,1-f][1,2,4]triazin-2-ylamino]-phenyl}-piperidin-4-yl)-(4-methyl-piperazin-1-yl)-methanone] |
| – | – | > 7.00 | 6.00 to 7.00 | COc1cc(N2CCC[C@@H](C(=O)N3CCN(C)CC3)C2)ccc1Nc1ncc2ccc(-c3ccccc3OC)n2n1 [Example 463, ((R)-1-{3-Methoxy-4-[7-(2-methoxy-phenyl)-pyrrolo[2,1-f][1,2,4]triazin-2-ylamino]-phenyl}-piperidin-3-yl)-(4-methyl-piperazin-1-yl)-methanone] |
| 5.00 to 6.00 | > 7.00 | – | – | C1=C(c2ccc3cnc(Nc4ccc(N5CCOCC5)cc4)nn23)CCSC1 [Example 613, [7-(3,6-Dihydro-2H-thiopyran-4-yl)-pyrrolo[2,1-f][1,2,4]triazin-2-yl]-(4-morpholin-4-yl-phenyl)-amine] |
| > 7.00 | > 7.00 | – | – | COc1ccccc1-c1ccc2cnc(Nc3ccc(C4CCNCC4)nc3)nn12 [Example 1026, (1′,2′,3′,4′,5′,6′-Hexahydro-[2,4]bipyridinyl-5-yl)-[7-(2-methoxy-phenyl)-pyrrolo[2,1-f][1,2,4]triazin-2-yl]-amine] |
